Data published in patent publication US20040198663A1, “Method of treating cardiac ischemia by using erythropoietin” (priority 2003, published 2004).

Tested on: hearts from normoxic infant rabbits
Assay: Isolated Langendorff-perfused heart, 30 min global no-flow ischemia and 35 min reperfusion, normoxic hearts
Parameters: species or system New Zealand White rabbit
Conditions: for POST DRUG Coronary flow rate / POST DRUG Heart rate / POST DRUG Left ventricle developed pressure / POST DRUG Right ventricle developed pressure / REPERFUSION (35 min) Coronary flow rate / REPERFUSION (35 min) Heart rate / REPERFUSION (35 min) Left ventricle developed pressure / REPERFUSION (35 min) Right ventricle developed pressure: normoxic hearts; for REPERFUSION (35 min) Coronary flow rate / REPERFUSION (35 min) Heart rate / REPERFUSION (35 min) Left ventricle developed pressure / REPERFUSION (35 min) Right ventricle developed pressure: after 30 min ischemia
Procedure: The study was directed to determining whether erythropoietin (0.5-10.0 U/ml) confers immediate cardioprotection in infant rabbit hearts and the contribution of protein kinases, nitric oxide synthase and potassium channels to the underlying mechanism. Hearts from normoxic infant Zealand White rabbits (n=8/group) were isolated and perfused in the Langendorff mode. Biventricular function was recorded under steady-state conditions prior to 30 minutes global no flow ischemia and 35 minutes reperfusion.
Animals. Rabbits used in the study received humane care in compliance with the “Guide for the Care and Use of Laboratory Animals” formulated by the National Research Council, 1996. Infant New Zealand White rabbits were maintained for 10 days in a normoxic (SaO2>95%) or hypoxic (SaO2<85%) environment as described in Baker et al., Circulation 99:1249-54 (1999).
Isolated heart perfusion. Isolated rabbit hearts were perfused with bicarbonate buffer at constant pressure in a retrograde manner and instrumented as described in Baker et al., Circulation 99:1249-54 (1999). Protein kinase inhibitors, potassium channel blockers or nitric oxide synthase inhibitors were added to this perfusate as needed. A 3-way tap, located immediately above the site of cannulation, allowed the entire perfusate to be diverted away from the heart to produce global, no-flow ischemia. Reperfusion was achieved by repositioning of the tap to allow perfusate to be delivered to the heart. Left and right ventricular function was monitored continuously throughout each experiment as described in Baker et al., Circulation 99:1249-54 (1999). End-diastolic pressure was initially set to 3 mmHg for 2 minutes. The balloons were then progressively inflated with a microsyringe to set end-diastolic pressures to 8 mmHg for the left ventricle and 4 mmHg for the right ventricle, with developed pressure and heart rate recorded during steady-state conditions. Coronary flow rate was measured throughout the experiment by timed collections of the coronary effluent from the right side of the heart into a graduated cylinder. Coronary flow rate was expressed as milliliters per minute per gram wet weight.
Resistance to myocardial ischemia. Hearts from infant rabbits were perfused with bicarbonate buffer, and biventricular function was monitored continuously throughout each experiment as described in Rafiee et al., Circulation 106:239-45 (2002). For concentration response studies, hearts were then perfused with erythropoietin (0.5-10.0 U/ml) for 15 minutes prior to 30 minutes ischemia and 35 minutes reperfusion. For mechanism studies with protein kinase inhibitors, potassium channel blockers or nitric oxide synthase inhibitors, hearts were perfused with drugs for 15 minutes alone followed by 15 minutes in combination with erythropoietin prior to ischemia. Hearts perfused with protein kinase inhibitors or potassium channel blockers alone in the absence of erythropoietin for 30 minutes prior to ischemia served as untreated controls for these studies. Recovery of post-ischemic left and right ventricular developed pressure was expressed as a percentage of its pre-drug, pre-ischemic value.
Assessment of ventricular function. Left and right ventricular function was monitored continuously throughout each experiment as described in Rafiee et al., Circulation 106:239-45 (2002).
Hearts from New Zealand White rabbits at 9 days of age were perfused with erythropoietin at 0, 0.5, 1.0, 2.5, 5.0, and 10.0 U/ml for 15 minutes prior to 30 minutes global ischemia and 35 minutes reperfusion. Erythropoietin (1.0 U/ml) reduced coronary flow rate prior to ischemia from 7 ml/min/g to 6 ml/min/g but had no effect on heart rate (220±18 beats/min) or developed pressure in left (106±3 mm Hg) or right (42±3 mm Hg) ventricle.

[1] = erythropoietin 1.0 U/ml, no effect

“erythropoietin: Recombinant human erythropoietin, a glycoprotein hormone, obtained from Cell Science, Inc.” was tested, and the “cardioprotection after 20 minutes treatment versus 15-minute treatment” value (1.0 U/ml for 20 minutes) was “no further increase in cardioprotection”, the “minimum treatment period needed to confer cardioprotection in both left and right ventricle” value (1.0 U/ml prior to ischemia) was 15 min and the “protective concentrations of erythropoietin in the in vitro studies” value (15 min prior to ischemia) was 0.5-5.0 units/ml. The “developed pressure in left ventricle prior to ischemia” value [1] was 106±3 mm Hg, the “developed pressure in right ventricle prior to ischemia” value [1] was 42±3 mm Hg and the “heart rate prior to ischemia” value [1] was 220±18 beats/min. For the same substance, the “coronary flow rate prior to ischemia” value (erythropoietin 1.0 U/ml, reduced from 7 ml/min/g) was 6 mL/min/g, the “POST DRUG Coronary flow rate” value (EPO 0.5 U/ml for 15 min) was 3 ± 1 mL/min/g and the “POST DRUG Heart rate” value (EPO 0.5 U/ml for 15 min) was 196 ± 21 beats/min. The “POST DRUG Left ventricle developed pressure” value (EPO 0.5 U/ml for 15 min) was 102 ± 8 mmHg, the “POST DRUG Right ventricle developed pressure” value (EPO 0.5 U/ml for 15 min) was 38 ± 5 mmHg and the “REPERFUSION (35 min) Coronary flow rate” value (EPO 0.5 U/ml) was 4 ± 1 mL/min/g. The “REPERFUSION (35 min) Heart rate” value (EPO 0.5 U/ml) was 210 ± 19 beats/min, the “REPERFUSION (35 min) Left ventricle developed pressure” value (EPO 0.5 U/ml) was 67 ± 3 mmHg and the “REPERFUSION (35 min) Right ventricle developed pressure” value (EPO 0.5 U/ml) was 31 ± 4 mmHg. For the same substance, the “POST DRUG Coronary flow rate” value (EPO 1.0 U/ml for 15 min) was 3 ± 1 mL/min/g, the “POST DRUG Heart rate” value (EPO 1.0 U/ml for 15 min) was 199 ± 25 beats/min and the “POST DRUG Left ventricle developed pressure” value (EPO 1.0 U/ml for 15 min) was 99 ± 4 mmHg. The “POST DRUG Right ventricle developed pressure” value (EPO 1.0 U/ml for 15 min) was 38 ± 3 mmHg, the “REPERFUSION (35 min) Coronary flow rate” value (EPO 1.0 U/ml) was 5 ± 1 mL/min/g and the “REPERFUSION (35 min) Heart rate” value (EPO 1.0 U/ml) was 210 ± 30 beats/min. For the same substance, the “REPERFUSION (35 min) Left ventricle developed pressure” value (EPO 1.0 U/ml) was 71 ± 8 mmHg, the “REPERFUSION (35 min) Right ventricle developed pressure” value (EPO 1.0 U/ml) was 31 ± 2 mmHg and the “POST DRUG Coronary flow rate” value (EPO 2.5 U/ml for 15 min) was 4 ± 1 mL/min/g. The “POST DRUG Heart rate” value (EPO 2.5 U/ml for 15 min) was 210 ± 20 beats/min, the “POST DRUG Left ventricle developed pressure” value (EPO 2.5 U/ml for 15 min) was 103 ± 4 mmHg and the “POST DRUG Right ventricle developed pressure” value (EPO 2.5 U/ml for 15 min) was 41 ± 5 mmHg. For the same substance, the “REPERFUSION (35 min) Coronary flow rate” value (EPO 2.5 U/ml) was 5 ± 2 mL/min/g, the “REPERFUSION (35 min) Heart rate” value (EPO 2.5 U/ml) was 224 ± 14 beats/min and the “REPERFUSION (35 min) Left ventricle developed pressure” value (EPO 2.5 U/ml) was 64 ± 3 mmHg. For the same substance, the “REPERFUSION (35 min) Right ventricle developed pressure” value (EPO 2.5 U/ml) was 31 ± 3 mmHg, the “POST DRUG Coronary flow rate” value (EPO 5.0 U/ml for 15 min) was 4 ± 1 mL/min/g and the “POST DRUG Heart rate” value (EPO 5.0 U/ml for 15 min) was 221 ± 20 beats/min. For the same substance, the “POST DRUG Left ventricle developed pressure” value (EPO 5.0 U/ml for 15 min) was 102 ± 6 mmHg, the “POST DRUG Right ventricle developed pressure” value (EPO 5.0 U/ml for 15 min) was 43 ± 7 mmHg and the “REPERFUSION (35 min) Coronary flow rate” value (EPO 5.0 U/ml) was 4 ± 1 mL/min/g. The “REPERFUSION (35 min) Heart rate” value (EPO 5.0 U/ml) was 226 ± 26 beats/min, the “REPERFUSION (35 min) Left ventricle developed pressure” value (EPO 5.0 U/ml) was 64 ± 4 mmHg and the “REPERFUSION (35 min) Right ventricle developed pressure” value (EPO 5.0 U/ml) was 32 ± 5 mmHg. For the same substance, the “POST DRUG Coronary flow rate” value (EPO 10 U/ml for 15 min) was 5 ± 2 mL/min/g, the “POST DRUG Heart rate” value (EPO 10 U/ml for 15 min) was 232 ± 52 beats/min and the “POST DRUG Left ventricle developed pressure” value (EPO 10 U/ml for 15 min) was 101 ± 5 mmHg. For the same substance, the “POST DRUG Right ventricle developed pressure” value (EPO 10 U/ml for 15 min) was 40 ± 5 mmHg, the “REPERFUSION (35 min) Coronary flow rate” value (EPO 10 U/ml) was 5 ± 1 mL/min/g and the “REPERFUSION (35 min) Heart rate” value (EPO 10 U/ml) was 230 ± 49 beats/min. The “REPERFUSION (35 min) Left ventricle developed pressure” value (EPO 10 U/ml) was 52 ± 3 mmHg and the “REPERFUSION (35 min) Right ventricle developed pressure” value (EPO 10 U/ml) was 28 ± 4 mmHg.
